The results in this text go back to ChEMBL document CHEMBL5365490, “Enhanced tumor specific drug release by hypoxia sensitive dual-prodrugs based on 2-nitroimidazole” (Bioorg Med Chem Lett, 2023).

Data set [1] is described as follows: Chemical stability of compound in PBS at pH 7.4 assessed as remaining parent compound incubated for 6 hrs by LC/MS analysis. Conditions: buffer, pH 7.4, 6 h. Type of data set: physicochemical.
The nature of data set [2]: Stability of compound in human MIA Paca-2 cells homogenates assessed as remaining parent compound incubated for 24 hrs by LC/MS analysis. Format: ADME, cell-based. To be noted: mia paca-2, 24 h.
In data set [3] the test system is MIA PaCa-2. Nature of the data set: Antiproliferative activity against human MIA-PaCa-2 cells assessed as reduction in cell viability > 1 uM measured for 72 hrs under hypoxia condition by MTT assay. Format: functional, cell-based.
The nature of data set [4]: Stability of compound in human MIA Paca-2 cells homogenates assessed as remaining parent compound incubated for 6 hrs by LC/MS analysis. Type of data set: ADME, cell-based. To be noted: mia paca-2, 6 h.
The nature of data set [5]: Chemical stability of compound in PBS at pH 7.4 assessed as remaining parent compound incubated for 24 hrs by LC/MS analysis. To be noted: buffer, pH 7.4, 24 h. Format: physicochemical.
The nature of data set [6]: Chemical stability of compound in PBS at pH 7.4 assessed as remaining parent compound after 1 hrs of incubation by LC/MS analysis. Type of data set: physicochemical. To be noted: buffer, pH 7.4, 1 h.
Data set [7] is described as follows: Stability of compound in human MIA Paca-2 cells homogenates assessed as drug degradation incubated for 6 hrs by LC/MS analysis. Type of data set: ADME, cell-based. To be noted: MIA PaCa-2 cell homogenates, read-out: Drug degradation.
Data set [8] in a line: Drug metabolism in human MIA PaCa-2 cells homogenates assessed as (S)-2-(2,3-dichloro-4H-thieno[3,2-b]pyrrole-5-carboxamido)-3-(2-nitro-1H-imidazol-1-yl)propanoic acid formation incubated for 24 hrs by LC/MS analysis. Type of data set: ADME, cell-based. Conditions: mia paca-2, 24 h.
Data set [9] is described as follows: Drug metabolism in human MIA PaCa-2 cells homogenates assessed as gemcitabine formation incubated for 24 hrs by LC/MS analysis. Format: ADME, cell-based. Conditions: mia paca-2, 24 h.
The nature of data set [10]: Half life in PBS buffer at pH 7.4 measured upto 72 hrs by LC/MS analysis. Format: physicochemical.
Data set [11] deals with MIA PaCa-2. In words: Antiproliferative activity against human MIA-PaCa-2 cell assessed as inhibition of cell growth > 0.1 uM measured for 72 hrs under normoxia condition by MTT assay. Format: functional, cell-based. In general terms: Tetrazolium dyes change colour on reduction, which living cells bring about.
Data set [12] deals with MIA PaCa-2. Nature of the data set: Antiproliferative activity against human MIA-PaCa-2 cells assessed as reduction in cell viability > 0.1 uM measured for 72 hrs under hypoxia condition by MTT assay. Type of data set: functional, cell-based.

The source made the active and inactive calls. The rule behind the calls is not given here.

With `O=C(Nc1ccn([C@@H]2O[C@H](CO)[C@@H](O)C2(F)F)c(=O)n1)OCc1ccc(NC(=O)[C@@H](Cn2ccnc2[N+](=O)[O-])NC(=O)c2cc3sc(Cl)c(Cl)c3[nH]2)cc1`, the Stability result in data set [1], in data set [2], in data set [4] and in [5] was “Stable” throughout. Besides, the outcome in the data set with MIA PaCa-2 [3] was Active.

Take `Nc1ccn([C@@H]2O[C@H](COC(=O)[C@H](Cn3ccnc3[N+](=O)[O-])NC(=O)c3cc4sc(Cl)c(Cl)c4[nH]3)[C@@H](O)C2(F)F)c(=O)n1`: the Stability entry in data set [6] is “Unstable”. In data set [7], the metabolised at 6 h is greater than 50%. Moreover, the Drug metabolism entry in data set [8] and in data set [9] was “Metabolite_Detected” in each case.

Turning to `Nc1nccn1C[C@@H](NC(=O)c1cc2sc(Cl)c(Cl)c2[nH]1)C(=O)Nc1ccc(COC(=O)Nc2ccn([C@@H]3O[C@H](CO)[C@@H](O)C3(F)F)c(=O)n2)cc1`, in data set [10], the half-life – broadly, the time in which the quantity being followed falls by half – was 40 h.

As for `Nc1ccn([C@@H]2O[C@H](CO)[C@@H](O)C2(F)F)c(=O)n1`, the result in the data set on MIA PaCa-2 [11] and in the data set on MIA PaCa-2 [12] was Active.
